Test results: patent US20080293572A1, “Herbicidal Mixtures” (BASF SE, priority 2005, published 2008)

Columns and labels:
Test in all cases: Greenhouse post-emergence herbicidal trial
PANMI = assay type: in vivo, Panicum milliaceum; settings: PANMI; a) 12.5 g/ha, MSO or COC 1.25% where in mixture, scale 0-100
From the text: (§1) The culture vessels used were plastic flowerpots filled, as substrate, with sandy loam comprising about 3% of humus. The seeds of the test plants were sown separated according to species.
(§2) For the post-emergence treatment, the test plants were initially cultivated to a height of 3-17 cm according to their habit and only then treated with the active compounds, which had been suspended or emulsified in water. To this end, the test plants were either sown directly and cultivated in the same vessels, or they were initially cultivated separately as seedlings and transplanted into the test vessels a few days prior to the treatment. According to the species, the plants were kept at temperatures of from 15° C. to 25° C. or from 20 to 35° C. The trial period extended over 3 weeks. During this time the plants were tended and their response to the individual treatments was evaluated.
(§3) The application in the greenhouse was carried out at a spray liquor application rate of 200 l/ha.

PANDI = assay type: in vivo, Panicum dichotomiflorum; settings: PANDI; a) 25 g/ha, MSO or COC 1.25% where in mixture, scale 0-100
From the text: as §1, §2, §3

HELAN = assay type: in vivo, Helianthus annua; settings: HELAN; a) 6.25 g/ha, MSO or COC 1.25% where in mixture, scale 0-100
From the text: as §1, §2, §3

XANST = assay type: in vivo, Xanthium strumarium; settings: XANST; a) 12.5 g/ha, MSO or COC 1.25% where in mixture, scale 0-100
From the text: as §1, §2, §3

SETVI = assay type: in vivo, Setaria viridis; settings: SETVI; a) 12.5 g/ha, MSO or COC 1.25% where in mixture, scale 0-100
From the text: as §1, §2, §3

ECHCG = assay type: in vivo, Echinochloa crus-galli; settings: MSO or COC 1.25% where in mixture, scale 0-100
From the text: as §1, §2, §3

AMBEL = assay type: in vivo, Ambrosia elatior; settings: AMBEL; a) 3.125 g/ha, MSO or COC 1.25% where in mixture, scale 0-100
From the text: as §1, §2, §3

SORBI = assay type: in vivo, Sorghum bicolor; settings: SORBI; a) 25 g/ha, MSO or COC 1.25% where in mixture, scale 0-100
From the text: as §1, §2, §3

SOLNI = assay type: in vivo, Solanum nigrum; settings: SOLNI; a) 3.125 g/ha, MSO or COC 1.25% where in mixture, scale 0-100
From the text: as §1, §2, §3

Cc1c(C(=O)c2cnn(C)c2O)ccc(S(C)(=O)=O)c1C1=NOCC1 [a)]
observed effect (PANMI): 75
observed effect (PANDI): 0
observed effect (HELAN): 30
observed effect (XANST): 65
observed effect (SETVI): 60
observed effect (ECHCG; ECHCG; a) 12.5 g/ha): 0
observed effect (ECHCG; ECHCG; a) 25 g/ha): 0
observed effect (AMBEL): 60
observed effect (SORBI): 10
observed effect (SOLNI): 30
